Source: patent publication US8299236B2, “Compositions and methods for enhancing delivery of nucleic acids into cells and for modifying expression of target genes in cells” (Marina Biotech, Inc., priority 2004, dated 2012)

Tests used:
mouse tail fibroblasts = assay: siRNA uptake with siRNA/peptide complexes in murine primary fibroblasts; format: cell-based; settings: Table 6
Method: Approximately 10,000 9 L/lacZ cells were plated per well in flat-bottom 96-well plates so that they would be ˜50% confluent the next day at the time of transfection. FAM-labeled siRNA and peptides were diluted in Opti-MEM® media (Invitrogen) at 2-fold the final concentration. Equal volumes of siRNA and peptide were mixed and allowed to complex 5-10 minutes at room temperature and then 50 μL added to cells, previously washed with PBS. Cells were transfected for 3 hours at 37° C., 5% CO2. Cells were washed with PBS, treated with trypsin and then analyzed by flow cytometry. siRNA uptake was measured by intensity of FAM fluorescence and cellular viability assessed by addition of propidium iodide.
The materials and methods used for these experiments are generally the same as described above, except that for the murine experiments 9 L/LacZ cells were replaced with mouse tail fibroblasts.
The uptake measurements were performed using mouse tail fibroblast cells.

9 L/LacZ cells = assay: Screening of siRNA/peptide complexes for FAM-siRNA uptake (flow cytometry, propidium iodide); format: cell-based; settings: Table 6
hTNF-α = assay: Plasma hTNF-α ELISA in human TNF-α expressing mice; format: in vivo, mouse; settings: i.v., average of the mice
From the text: During the injection periods, plasma samples were collected for ELISA testing (R&D Systems, Cat#SSTA00C), and paw scores were taken twice a week as an accepted index of RA disease progression and therapeutic efficacy.

[1] = system: transgenic mouse models of rheumatoid arthritis (RA) constitutively expressing human TNF-α; assay: Transgenic mouse models of rheumatoid arthritis constitutively expressing human TNF-α; format: in vivo; settings: twice weekly beginning at age 6 weeks; stabilization beginning at age 7 weeks
Method: One exemplary candidate siRNA/delivery peptide formulation was evaluated in two transgenic mouse models of rheumatoid arthritis (RA) constitutively expressing human TNF-α.

cells = assay: Uptake of peptide-siRNA conjugate versus complex (Cy5 fluorescence, flow cytometry); format: cell-based; settings: FIGS. 1 and 2
Method: Cells were plated the day before in 24-well plates so that they were ˜50-80% confluent at time of transfection. For complexes, siRNA and peptide were diluted in Opti-MEM® media (Invitrogen), then mixed and allowed to complex 5-10 minutes before adding to cells washed with PBS. Final concentration of siRNA was 500 nM at each peptide concentration (2-50 μM). The conjugate, also diluted in Opti-MEM® media, was added to cells at final concentrations ranging from 62.5 nM to 500 nM. At 500 nM concentration, we also combined with 20% FBS just before adding to washed cells. Cells were transfected for 3 hours at 37° C., 5% CO2. Cells were washed with PBS, treated with trypsin and then analyzed by flow cytometry. siRNA uptake was measured by intensity of Cy5 fluorescence and cellular viability assessed by addition of propidium iodide.

Substance	Percent Uptake, Primary MTF Cells (mouse tail fibroblasts) [%]	Percent Uptake, LacZ Cells (9 L/LacZ cells) [%]	further results
AAVALLPAVLLALLAPRKKRRQRRRPPQC [PN27]	61	86	
Ac-KETWWETWWTEWSQPKKKRKV-NH2 [PN182]		85	
H-AAVALLPAVLLALLAPSGASGLDKRDYV-NH2 [PN29]		87	
H-GALFLGFLGAAGSTMGAWSQPKSKRKVC-NH2 [PN453]	79		
H-RGSRRAVTRAQRRDGRRRRRSRRESYSVYVYRVLRQ-NH2 [PN404]	50		
H-RRRQRRKRGGDIMGEWGNEIFGAIAGFLG-NH2 [PN250]	86	99	
NH2-LLETLLKPFQCRICMRNFSTRQARRNHRRRHRR-amide (H-LLETLLKPFQCRICMRNFSTRQARRNHRRRHRR-NH2; cysteine pairing not given here) [PN202]		71	
NH2-RKKRRQRRRPPQCAAVALLPAVLLALLAP-amide (H-RKKRRQRRRPPQCAAVALLPAVLLALLAP-NH2) [PN28]	81	79	
Ramicade: the RA drug Ramicade (5 mg/kg); TNF-α neutralizing agent infliximab			hTNF-α ELISA (plasma) (hTNF-α; age 7 weeks): 102.24 pg/mL; hTNF-α ELISA (plasma) (hTNF-α; age 8 weeks): 39.27 pg/mL; hTNF-α ELISA (plasma) (hTNF-α; age 9 weeks): 25.80 pg/mL; RA score (paw and joint inflammation) [1]: RA score stabilization
conjugate: TAT-HA peptide (SEQ ID NO: 35) covalently conjugated to the siRNA sense strand (SEQ ID NO: 34) (chain 1 gcaagcugacccugaaguucau; chain 2 RRRQRRKRGGDIMGEWGNEIFGAIAGFLG; peptide-siRNA conjugate)			siRNA uptake and mean fluorescence, conjugate compared to complexing peptide and RNA (cells): higher uptake and greater mean fluorescence uptake
